Results as given in US11186564B2, “Dual NAV1.2/5HT2a inhibitors for treating CNS disorders” (Sunovion Pharmaceuticals Inc., priority 2016, dated 2021).
Where two headings read alike, the source gives them in different places.

Molecular target: T1, recombinant human serotonin receptor 5-HT2A (Homo sapiens, UniProt P28223)
T1 construct: expressed in transfected cells; method B: loaded with Ca2+ dye
Assay: 5-HT2A antagonist Ca2+ assay in CHO-K1 cells (method A aequorin luminescence / method B FLIPR fluorescence)
Assay type: cell-based
Conditions: antagonist mode vs EC80 of reference agonist, method A or B
From the text: The methods utilized to assess the inhibitory activity of compounds on recombinant human serotonin receptor 5-HT2A was based upon previously published approaches [Jerman J C, Brough S J, Gager T, Wood M, Coldwell M C, Smart D, Middlemiss D N. Pharmacological characterisation of human 5-HT2 receptor subtypes. European Journal of Pharmacology 2001 Feb. 23; 414(1):23-30; Le Poul E, Hisada S, Mizuguchi Y, Dupriez V J, Burgeon E, Detheux M. Adaptation of aequorin functional assay to high throughput screening. J Biomolecular Screening 2002 February; 7(1):57-65.] The 5-HT2A receptor signals through Gq-phospholipase signaling cascade, which leads to a transient increase in free intracellular […] concentration. Both 5-HT2A assay methods rely upon monitoring these changes in Ca^2+ concentration.
In method A [Le Poul E, Hisada S, Mizuguchi Y, Dupriez V J, Burgeon E, Detheux M. (2002)], CHO-K1 cells engineered to stably co-express both recombinant human 5-HT2A and mitochondrial apoaequorin are used. […] For agonist testing, 50 microliters of cell suspension is mixed with 50 microliters of a solution containing test compound or reference agonist in a 96-well standard geometry microtiter plate. The resulting emission of light was recorded using a Hamamatsu Functional Drug Screening System 6000 (FDSS 6000) luminometer. For antagonist testing, 100 microliters of the solution of reference agonist (to yield an agonist concentration, EC80, sufficient to cause the cells to generate an 80% maximal luminescence response in the absence of any antagonist) is injected into the mix of cells and test compound, 15 minutes after the first injection. The resulting emission of light is recorded using Hamamatsu FDSS 6000 luminometer. IC50 values are calculated (from compound concentration dependent inhibition of agonist-induced 5-HT2A-dependent light emission) by non-linear least squares regression of the data (percent inhibition) onto equation (1) above.
In method B [Jerman J C, Brough S J, Gager T, Wood M, Coldwell M C, Smart D, Middlemiss D N. (2001)], CHO-K1 cells which had been engineered to stably co-express recombinant human 5-HT2A are used in assay done similarly to method A. In method B, the cells are loaded with a fluorogenic Ca^2+ indicator dye by pre-incubation. Addition of the reference agonist serotonin causes a transient increase in fluorescence in a suspension of the loaded cells, which can be detected using the Molecular Devices fluorometric imaging plate reader (FLIPR), a high-throughput platform for 96-well cell-based assays. Addition of test compounds that are 5-HT2A antagonists, prior to the addition of the agonist (to yield an agonist concentration, EC80, sufficient to cause the cells to generate an 80% maximal fluorescence response in the absence of any antagonist), reduces the amount of fluorescence detected by the FLIPR upon agonist addition. IC50 values are calculated (from compound concentration dependent inhibition of agonist-induced 5-HT2A-dependent fluorescence) by non-linear least squares regression of the data (percent inhibition) onto equation (1) above.

T1 sequence (P28223 whole entry): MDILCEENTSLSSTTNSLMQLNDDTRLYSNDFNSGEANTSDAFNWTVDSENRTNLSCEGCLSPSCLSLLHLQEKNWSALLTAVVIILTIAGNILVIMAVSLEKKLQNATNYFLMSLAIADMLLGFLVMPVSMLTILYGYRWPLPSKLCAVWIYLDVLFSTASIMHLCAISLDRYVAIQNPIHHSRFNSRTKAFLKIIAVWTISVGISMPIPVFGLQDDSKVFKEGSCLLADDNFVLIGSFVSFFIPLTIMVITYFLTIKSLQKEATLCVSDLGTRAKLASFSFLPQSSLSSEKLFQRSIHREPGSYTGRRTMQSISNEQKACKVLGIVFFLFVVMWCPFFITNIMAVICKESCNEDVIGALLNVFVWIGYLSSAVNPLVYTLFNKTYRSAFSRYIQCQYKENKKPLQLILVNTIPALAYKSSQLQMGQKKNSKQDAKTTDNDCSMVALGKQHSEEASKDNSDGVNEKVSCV

| SMILES | IC50 (read-out: 5HT2A IC50) [µM] | IC50 (5HT2A IC50, μM) [µM] |
| --- | --- | --- |
| OC(COC1COCc2ccccc21)CN1CCC(Oc2ccccc2)CC1 (stereo not shown) [Example 239, 1-(isochroman-4-yloxy)-3-(4-phenoxypiperidin-1-yl)propan-2-ol] | 3.51 | – |
| O[C@H](CO[C@@H]1CCCc2ccccc21)CN1CCN(Cc2ccccc2)CC1 [Example 86, (S)-1-(4-benzylpiperazin-1-yl)-3-(((R)-1,2,3,4-tetrahydronaphthalen-1-yl)oxy)propan-2-ol] | > 16.7 | – |
| COc1ccc2c(c1)C(CN1CCC(Oc3cccnc3)CC1)CC2 (stereo not shown) [Example 109, 3-((1-((6-methoxy-2,3-dihydro-1H-inden-1-yl)methyl)piperidin-4-yl)oxy)pyridine] | 1.92 | – |
| COCc1cccc(OC2CCN(CC3CCOc4ccccc43)CC2)c1 (stereo not shown) [Example 163, 1-(chroman-4-ylmethyl)-4-(3-(methoxymethyl)phenoxy)piperidine] | 0.26 | – |
| OC(CO[C@H]1CCc2ccccc21)CN1CCC(Oc2ccc(F)cc2)CC1 (stereo in doubt) [Example 237, (R)-1-(((S)-2,3-dihydro-1H-inden-1-yl)oxy)-3-(4-(4-fluorophenoxy)piperidin-1-yl)propan-2-ol] | 0.6 | – |
| OC(COc1ccccc1)CN1CCCC12CCN(c1ccccc1)CC2 (stereo not shown) [Example 352, 1-phenoxy-3-(8-phenyl-1,8-diazaspiro[4.5]decan-1-yl)propan-2-ol] | > 5.3 | – |
| COc1ccc2c(c1)C(CN1CCC(Oc3cccc(C(N)=O)c3)CC1)CC2 (stereo not shown) [Example 108, 3-((1-((6-methoxy-2,3-dihydro-1H-inden-1-yl)methyl)piperidin-4-yl)oxy)benzamide] | 0.74 | – |
| COc1ccccc1OC1CCN(CC2CCc3cc(C#N)ccc32)CC1 (stereo not shown) [Example 99, 1-((4-(2-methoxyphenoxy)piperidin-1-yl)methyl)-2,3-dihydro-1H-indene-5-carbonitrile] | 0.45 | – |
| COc1ccc2c(c1)C(CN1CCC(Oc3cncnc3)CC1)CC2 (stereo not shown) [Example 126, 5-((1-((6-methoxy-2,3-dihydro-1H-inden-1-yl)methyl)piperidin-4-yl)oxy)pyrimidine] | > 3.16 | – |
| Fc1ccc(O[C@@H]2CCCN(CCC3CCOc4ccccc43)C2)cc1 (stereo partly drawn) [Example 262, (3R)-1-(2-(chroman-4-yl)ethyl)-3-(4-fluorophenoxy)piperidine] | 1.63 | – |
| COCc1ccc(OC2CCN(CC3CCc4ncccc43)CC2)cc1 (stereo not shown) [Example 127, 5-((4-(4-(methoxymethyl)phenoxy)piperidin-1-yl)methyl)-6,7-dihydro-5H-cyclopenta[b]pyridine] | > 12 | – |
| COc1cccc(O[C@H]2CCN(CC(O)CO[C@@H]3CCc4ccccc43)C2)c1 (stereo partly drawn) [Example 41, 1-(((R)-2,3-dihydro-1H-inden-1-yl)oxy)-3-((S)-3-(3-methoxyphenoxy)pyrrolidin-1-yl)propan-2-ol] | 7.13 | – |
| OC(CO[C@H]1CCc2ccccc21)CN1CC[C@H](Oc2cccc(F)c2)C1 (stereo partly drawn) [Example 35, 1-(((S)-2,3-dihydro-1H-inden-1-yl)oxy)-3-((S)-3-(3-fluorophenoxy)pyrrolidin-1-yl)propan-2-ol] | 7.13 | – |
| N#Cc1ccc(O[C@H]2CCN(CCN3CCc4ccccc4C3=O)C2)cc1 [Example 32, (S)-4-((1-(2-(1-oxo-3,4-dihydroisoquinolin-2(1H)-yl)ethyl)pyrrolidin-3-yl)oxy) benzonitrile] | > 16.7 | – |
| O[C@@H](COC1CCCCC1)CN1CCC[C@@H](Oc2ccc(F)cc2)C1 [Example 267, (R)-1-(cyclohexyloxy)-3-((R)-3-(4-fluorophenoxy)piperidin-1-yl)propan-2-ol] | 10.4 | – |
| N#Cc1ccc(O[C@@H]2CCN(CCN3CCc4ccccc4C3=O)C2)cc1 [Example 31, (R)-4-((1-(2-(1-oxo-3,4-dihydroisoquinolin-2(1H)-yl)ethyl)pyrrolidin-3-yl)oxy) benzonitrile] | > 16.7 | – |

| SMILES | IC50 (read-out: 5HT2A IC50) [µM] | IC50 (5HT2A IC50, μM) [µM] |
| --- | --- | --- |
| O[C@H](COC1CCCCC1)CN1CCC[C@H](Oc2ccc(F)cc2)C1 [Example 268, (S)-1-(cyclohexyloxy)-3-((S)-3-(4-fluorophenoxy)piperidin-1-yl)propan-2-ol] | 2.12 | – |
| COc1ccc2c(c1)C(CN1CCC[C@H](Oc3ccc(F)cc3)C1)CC2 (stereo partly drawn) [Example 256, (3S)-3-(4-fluorophenoxy)-1-((6-methoxy-2,3-dihydro-1H-inden-1-yl)methyl)piperidine] | 3.99 | – |
| COc1ccccc1N1CCC2(CCN(CC3Cc4cccnc4C3)C2)C1 (stereo not shown) [Example 338, 2-((6,7-dihydro-5H-cyclopenta[b]pyridin-6-yl)methyl)-7-(2-methoxyphenyl)-2,7-diazaspiro[4.4]nonane] | > 10 | – |
| O[C@@H](COC1CCCCC1)CN1CC2(CC(Oc3ccccc3)CO2)C1 (stereo partly drawn) [Example 372, (2R)-1-(cyclohexyloxy)-3-(7-phenoxy-5-oxa-2-azaspiro[3.4]octan-2-yl)propan-2-ol] | 0.09 | – |
| c1ccc(CCN2C[C@@H]3C[C@H]2CN3c2ccccc2)cc1 [Example 305, (1S,4S)-2-phenethyl-5-phenyl-2,5-diazabicyclo[2.2.1]heptane] | > 14.5 | – |
| CC(CN1CCc2ccccc2C1=O)N1CCC(Oc2ccc(F)cc2)CC1 (stereo not shown) [Example 204, 2-(2-(4-(4-fluorophenoxy)piperidin-1-yl)propyl)-3,4-dihydroisoquinolin-1(2H)-one] | 0.56 | – |
| COc1ccc2c(c1)C(CN1C[C@H]3CC[C@@H]1CN3c1ccccc1)CC2 (single isomer, unassigned) [Compound 314] | > 10 | – |
| CC1(OCC(O)CN2CCN(c3ccccc3)CC2)COc2ccccc21 (stereo not shown) [Example 79, 1-((3-methyl-2,3-dihydrobenzofuran-3-yl)oxy)-3-(4-phenylpiperazin-1-yl)propan-2-ol] | 0.36 | – |
| O[C@H](COC1CCCCC1)CN1[C@@H]2CC[C@H]1CN(c1nccs1)C2 [Example 292, (S)-1-(cyclohexyloxy)-3-((1R,5S)-3-(thiazol-2-yl)-3,8-diazabicyclo[3.2.1]octan-8-yl)propan-2-ol] | > 10 | – |
| O[C@H](COC1CCCCC1)CN1C[C@@H]2C[C@H](C1)N(c1ccccc1)C2 [Example 333, (S)-1-(cyclohexyloxy)-3-((1S,5R)-6-phenyl-3,6-diazabicyclo[3.2.1]octan-3-yl)propan-2-ol] | > 16.7 | – |
| Fc1ccc(O[C@H]2CCN(CC3CCc4ccncc43)C2)cc1 (stereo partly drawn) [Example 6, 7-(((S)-3-(4-fluorophenoxy)pyrrolidin-1-yl)methyl)-6,7-dihydro-5H-cyclopenta[c]pyridine] | 3 | – |
| Fc1ccc(O[C@@H]2CCN(CC3CCc4ccncc43)C2)cc1 (stereo partly drawn) [Example 5, 7-(((R)-3-(4-fluorophenoxy)pyrrolidin-1-yl)methyl)-6,7-dihydro-5H-cyclopenta[c]pyridine] | 5.88 | – |
| COc1ccccc1OC1CCN(CC2(C)CCc3ccccc32)CC1 (stereo not shown) [Example 96, 4-(2-methoxyphenoxy)-1-((1-methyl-2,3-dihydro-1H-inden-1-yl)methyl)piperidine] | > 10 | – |
| c1ccc2c(c1)CCC1(CCN(CC3CCc4ncccc43)CC1)O2 (stereo not shown) [Example 407, 1′-((6,7-dihydro-5H-cyclopenta[b]pyridin-5-yl)methyl)spiro[chromane-2,4′-piperidine]] | 3.64 | – |
| OC(COC1CCCCC1)CN1CCC2(CC1)COc1ccccc12 (stereo not shown) [Example 389, 1-(cyclohexyloxy)-3-(2H-spiro[benzofuran-3,4′-piperidin]-1′-yl)propan-2-ol] | – | 8.58 |
